Test results reported in patent US6288119A, “11,15-O-dialkylprostaglandin E derivatives, process for producing the same, and drugs containing the same as the active ingredient” (Ono Pharmaceuticals Co., Ltd., priority 1997, dated 2001).

What was measured:
mouse EP3α = target: T1, mouse EP3α (Mus musculus, UniProt P30557); assay: Binding assay using expression cell of prostanoids receptor subtype, EP3α ([3H]-PGE2 binding inhibition, CHO membrane fraction); settings: 2.5 nM [3H]-PGE2, 1 hour at room temperature, pH 6.0, read-out: Dissociation Constant Ki, EP3α
T1 construct: expressed in transfected cells; host or cells: CHO cells
T1 sequence (P30557 1-365): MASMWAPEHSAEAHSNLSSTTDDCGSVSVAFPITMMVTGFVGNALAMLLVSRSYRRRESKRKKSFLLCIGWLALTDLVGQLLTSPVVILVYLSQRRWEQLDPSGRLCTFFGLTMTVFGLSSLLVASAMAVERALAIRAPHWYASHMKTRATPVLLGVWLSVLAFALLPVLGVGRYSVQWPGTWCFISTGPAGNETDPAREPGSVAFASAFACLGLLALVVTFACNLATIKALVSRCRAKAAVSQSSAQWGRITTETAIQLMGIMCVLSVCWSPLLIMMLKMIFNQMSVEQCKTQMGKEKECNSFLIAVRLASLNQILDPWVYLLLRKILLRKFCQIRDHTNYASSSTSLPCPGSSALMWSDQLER
Procedure: (§1) (i) Binding assay using expression cell of prostanoids receptor subtype
(§2) The preparation of membrane fraction was carried out according to the method of Sugimoto et al. [J. Biol. Chem., 267, 6463-6466 (1992)], using expression CHO cell of the prostanoids receptor subtype (mouse EP1, EP2, EP3α, EP4).
(§3) The standard assay mixture containing membrane fraction (0.5 mg/ml), and [3H]-PGE2 in a final volume of 200 μl was incubated for 1 hour at room temperature. The reaction was terminated by addition of 3 ml of ice-cooled buffer. The mixture was filtered through a GF/B glass filter under reduced pressure. The radioactivity associated with the filter was measured by liquid scintillation counting.
(§4) Kd and Bmax values were determined from Scatchard plots [Ann. N.Y. Acad. Sci., 51, 660 (1949)]. Non-specific binding was calculated as the binding in the presence of an excess (2.5 μM) of unlabeled PGE2. In the measurement of 3H-PGE2 binding inhibitory activity, 2.5 nM of [3H]-PGE2 and various concentrations of the compounds of the present invention were added. The following buffer was used in all reactions.
(§5) Buffer; 10 mM potassium phosphate (pH 6.0), 1 mM EDTA, 10 mM MgCl2, 0.1 M NaCl.
(§6) The dissociation constant Ki (μM) of each compound was calculated by the following equation.

mouse EP4 = target: T2, mouse EP4 (Mus musculus, UniProt P32240); assay: Binding assay using expression cell of prostanoids receptor subtype, EP4 ([3H]-PGE2 binding inhibition, CHO membrane fraction); settings: 2.5 nM [3H]-PGE2, 1 hour at room temperature, pH 6.0, read-out: Dissociation Constant Ki, EP4
T2 construct: expressed in transfected cells; host or cells: CHO cells
Procedure: as §1, §2, §3, §4, §5, §6

mouse EP2 = target: T3, mouse EP2 (Mus musculus, UniProt Q62053); assay: Binding assay using expression cell of prostanoids receptor subtype, EP2 ([3H]-PGE2 binding inhibition, CHO membrane fraction); settings: 2.5 nM [3H]-PGE2, 1 hour at room temperature, pH 6.0, read-out: Dissociation Constant Ki, EP2
T3 construct: expressed in transfected cells; host or cells: CHO cells
Procedure: as §1, §2, §3, §4, §5, §6

mouse EP1 = target: T4, mouse EP1 (Mus musculus, UniProt P35375); assay: Binding assay using expression cell of prostanoids receptor subtype, EP1 ([3H]-PGE2 binding inhibition, CHO membrane fraction); settings: 2.5 nM [3H]-PGE2, 1 hour at room temperature, pH 6.0, read-out: Dissociation Constant Ki, EP1
T4 construct: expressed in transfected cells; host or cells: CHO cells
T4 sequence (P35375 1-405): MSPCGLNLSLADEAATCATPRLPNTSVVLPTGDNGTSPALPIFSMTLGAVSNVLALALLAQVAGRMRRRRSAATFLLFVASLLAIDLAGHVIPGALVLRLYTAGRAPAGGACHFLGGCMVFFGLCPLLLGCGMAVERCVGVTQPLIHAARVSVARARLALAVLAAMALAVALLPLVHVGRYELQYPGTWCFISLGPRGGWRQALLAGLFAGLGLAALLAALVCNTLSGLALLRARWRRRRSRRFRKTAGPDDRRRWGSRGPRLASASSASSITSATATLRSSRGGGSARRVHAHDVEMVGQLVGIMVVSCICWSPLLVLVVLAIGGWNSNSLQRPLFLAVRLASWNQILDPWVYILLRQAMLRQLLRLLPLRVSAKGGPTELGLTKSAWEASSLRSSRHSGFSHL
Procedure: as §1, §2, §3, §4, §5, §6

T3 sequence (Q62053 whole entry): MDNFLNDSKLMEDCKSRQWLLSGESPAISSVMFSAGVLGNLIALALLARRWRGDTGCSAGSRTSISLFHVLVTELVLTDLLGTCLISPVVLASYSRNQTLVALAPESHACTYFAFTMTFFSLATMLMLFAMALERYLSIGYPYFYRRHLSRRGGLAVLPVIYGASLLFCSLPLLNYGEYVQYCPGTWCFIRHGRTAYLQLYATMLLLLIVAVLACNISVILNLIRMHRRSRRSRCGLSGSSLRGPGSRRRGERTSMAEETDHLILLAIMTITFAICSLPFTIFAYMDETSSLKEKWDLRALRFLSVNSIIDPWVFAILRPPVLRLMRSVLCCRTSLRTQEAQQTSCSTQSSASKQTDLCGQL
T2 sequence (P32240 whole entry): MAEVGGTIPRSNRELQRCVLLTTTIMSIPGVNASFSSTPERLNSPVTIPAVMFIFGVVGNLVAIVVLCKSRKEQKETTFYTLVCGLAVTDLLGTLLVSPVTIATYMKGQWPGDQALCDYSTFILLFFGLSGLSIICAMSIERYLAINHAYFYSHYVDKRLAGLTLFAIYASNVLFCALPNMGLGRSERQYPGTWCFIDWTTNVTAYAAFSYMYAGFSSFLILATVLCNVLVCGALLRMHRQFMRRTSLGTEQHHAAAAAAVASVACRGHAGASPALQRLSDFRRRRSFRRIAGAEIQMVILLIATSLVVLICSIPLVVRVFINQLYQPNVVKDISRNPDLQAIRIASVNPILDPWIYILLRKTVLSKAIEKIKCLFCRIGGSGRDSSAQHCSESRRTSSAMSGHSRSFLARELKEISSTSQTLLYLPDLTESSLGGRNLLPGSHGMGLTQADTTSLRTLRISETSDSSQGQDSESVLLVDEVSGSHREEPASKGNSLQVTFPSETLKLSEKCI

| Structure (SMILES) | Ki (mouse EP3α) [nM] | Ki (mouse EP4) [nM] | Ki (mouse EP2) [nM] | Ki (mouse EP1) [nM] |
| --- | --- | --- | --- | --- |
| CCCCC[C@@H](/C=C/[C@H]1[C@H](OC)CC(=O)[C@@H]1CCCCCCC(=O)O)OC [1(a), 11α,15α-Dimethoxy-9-oxoprosta-13E-enoic acid] | 6.3 | 1300 | 1100 | > 10000 |
| CCCCCC[C@@H](/C=C/[C@H]1[C@H](OC)CC(=O)[C@@H]1C/C=C\CCCC(=O)O)OC [1(e), 11α,15α-Dimethoxy-9-oxo-20-methylprosta-5Z,13E-dienoic acid] | 6.1 | 3700 | 1300 | 2400 |
| COC(/C=C/[C@H]1[C@H](OC)CC(=O)[C@@H]1C/C=C\CCCC(=O)O)COc1ccccc1 (stereo partly drawn) [1(f), 11α,15α-Dimethoxy-9-oxo-16-phenoxy-17,18,19,20-tetranorprosta-5Z,13E-dienoic acid] | 2.9 | > 10000 | > 10000 | 310 |
| CCCCC[C@@H](/C=C/[C@H]1[C@H](OC)CC(=O)[C@@H]1C/C=C\CCCC(=O)O)OC [Example 1, 11α,15α-Dimethoxy-9-oxoprosta-5Z,13E-dienoic acid] | 3.6 | 4200 | 2400 | > 10000 |
| CCCCC[C@@H](/C=C/[C@H]1[C@H](OCC)CC(=O)[C@@H]1C/C=C\CCCC(=O)O)OCC [Example 2, 11α,15α-Diethoxy-9-oxoprosta-5Z,13E -dienoic acid] | 40 | 5900 | 600 | > 10000 |

Now those with a lower Ki (mouse EP3α), led by results:

| Ki (mouse EP3α) [nM] | Ki (mouse EP4) [nM] | Ki (mouse EP2) [nM] | Ki (mouse EP1) [nM] | Structure (SMILES) |
| --- | --- | --- | --- | --- |
| 2.7 | 2500 | 530 | 970 | CCCCC(C)(C)[C@@H](/C=C/[C@H]1[C@H](OC)CC(=O)[C@@H]1C/C=C\CCCC(=O)O)OC [1(b), 11α,15α-Dimethoxy-9-oxo-16,16-dimethylprosta-5Z,13E-dienoic acid] |
| 1.7 | 73 | 34 | 39 | CCCCC[C@@H](/C=C/[C@@H]1[C@@H](C/C=C\CCCC(=O)O)[C@H](Cl)C[C@H]1OC)OC [1(h), 11α,15α-Dimethoxy-9β-chloroprosta-5Z,13E-dienoic acid] |
